Laboratory results published in US6533767B2, “Methods for enhancing fluid flow through an obstructed vascular site, and systems and kits for use in practicing the same” (Corazon Technologies, Inc., priority 2000, dated 2003).

Legend:
[1] = In vitro cholesterol dissolution; type: physicochemical; details: for effectiveness in solvating / dissolving crystalline cholesterol: 0.1 grams cholesterol in 50 mLs 1% surfactant solution; for cholesterol crystal presence or absence and crystal morphology (light microscopy): 0.1 grams cholesterol in 50 mLs surfactant solution, agitation up to 1 hour, 200x magnification, time as in value
Procedure: Dissolution of cholesterol was examined in different solutions of bile salts, non-ionic, and ionic surfactants. Solutions of bile salts were prepared as follows: 0.5% solutions of cholic, dehydrocholic, deoxycholic, lithocholic acids were made by dissolving 0.5 grams of the free acid powders in 100 mL H2O previously adjusted to pH=12 with sodium hydroxide. Solutions were then adjusted to pH=7.5 with HCl. 1% surfactant solutions were made by dilution of concentrated stock solutions: Benzalkonium chloride, nonoxynol-9, sodium dodecyl sulfate, were prepared immediately prior to use. Dissolution studies were performed by adding 0.1 grams cholesterol powdered crystals to 50 mLs of the above surfactants with agitation on a rocker table for 1 hour. Solutions were then examined under light microscopy 200× magnification and cholesterol crystal presence or absence and crystal morphology recorded for each solution.

[2] = In vitro thrombus removal in cadaveric femoral arteries; details: 1% solution, approximately 60 cc per treatment over a 10 minute interval
Procedure: Fresh cadaveric femoral arteries which contained soft clots partially occluding the. vessel lumen were used. […] Vessels were treated with a 1% surfactant solution of sodium dodecyl sulfate (SDS, Sigma chemicals), prepared immediately prior to use. Treatment consisted of injection of surfactant through a 35 cc male luer syringe and flow characteristics recorded.

[3] = Solution containing surfactant and acid components, effect on cholesterol crystals; type: physicochemical; details: SDS 1%; combination with 0.1N HCl pH 1.0, isotonic (300 mOsmol)
Procedure: A solution of sodium dodecyl sulfate (SDS) (a.k.a. sodium lauryl sulfate) (1%) and 0.1N hydrochloric acid (pH 1.0) made isotonic (300 mOsmol) with sodium chloride was prepared and compared with a solution of sodium dodecyl sulfate solution (1%). […] This combination solution can be buffered with sodium bicarbonate (NaHCO3) in the same manner that the hydrochloric acid solution is buffered with NaHCO3, as described in the specification supra.

Compound | effectiveness in solvating / dissolving crystalline cholesterol [1] | cholesterol crystal presence or absence and crystal morphology (light microscopy) [1] | flow through vessel after treatment [2] | removal of soft thrombus [2] | micelle formation around cholesterol crystals [3] | crystal dissolution ([1]; by 1 hour)
CCCCCCCCCCCCOS(=O)(=O)[O-].[Na+] [Sodium dodecyl sulfate, sodium dodecyl sulfate] | most effective in solvating | no free crystals were observed 5 minutes after cholesterol addition | Flow was reestablished in all samples | effective in removing soft thrombus from occluded femoral arteries | formed micelles around cholesterol crystals making the cholesterol crystals water soluble | 
Benzalkonium chloride | appeared to dissolve most of the crystalline cholesterol | still crystals apparent after 10 minutes |  |  |  | approximately 50%
nonoxynol-9 |  | little or no observable effect on the crystal structure |  |  |  | 
